Assay results: patent EP0970067B1, “(METHYLSULFONYL)PHENYL-2-(5H)-FURANONES WITH OXYGEN LINK AS COX-2 INHIBITORS” (Merck Frosst Canada & Co., priority 1997, dated 1998)

Experiments:
[1] = molecular target: T1, COX-2 (Homo sapiens, UniProt P35354); test: Whole cell COX-2 assay using CHO transfected cell line (PGE2 radioimmunoassay); format: cell-based; parameters: expressed in transfected cells; host or cells: CHO [hCOX-2], stably transfected with pCDNAIII; details: CHO [hCOX-2] cells; PGE2 synthesis in response to arachidonic acid
T1 sequence (P35354 18-604): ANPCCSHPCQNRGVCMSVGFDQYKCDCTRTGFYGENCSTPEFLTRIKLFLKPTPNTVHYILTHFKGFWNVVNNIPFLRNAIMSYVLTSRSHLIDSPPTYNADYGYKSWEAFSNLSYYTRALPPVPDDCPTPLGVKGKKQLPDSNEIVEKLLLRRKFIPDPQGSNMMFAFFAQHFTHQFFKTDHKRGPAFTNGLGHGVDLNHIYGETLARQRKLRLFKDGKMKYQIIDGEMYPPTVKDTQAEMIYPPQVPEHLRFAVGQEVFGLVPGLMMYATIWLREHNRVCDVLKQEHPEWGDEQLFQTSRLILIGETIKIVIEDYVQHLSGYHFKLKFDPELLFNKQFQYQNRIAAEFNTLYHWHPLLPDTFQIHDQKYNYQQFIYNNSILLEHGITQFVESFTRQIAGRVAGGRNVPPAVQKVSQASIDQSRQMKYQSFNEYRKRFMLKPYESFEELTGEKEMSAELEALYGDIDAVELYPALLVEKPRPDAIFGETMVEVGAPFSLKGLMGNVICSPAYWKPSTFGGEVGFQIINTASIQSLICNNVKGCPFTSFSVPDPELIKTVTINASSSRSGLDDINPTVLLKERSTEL
Experimental: Compounds are tested as inhibitors of cyclooxygenase activity in whole cell cyclooxygenase assays. These assays measure prostaglandin E2 synthesis in response to arachidonic acid, using a radioimmunoassay. Cells used for these assays are chinese hamster ovary (CHO) cell lines which have been stably transfected with an eukaryotic expression vector […] containing either the human Cox-1 or Cox-2 CDNA's. U937 cell microsomes are also used to measure Cox-1 activity.
Chinese hamster ovary (CHO) cell lines which have been stably transfected with an eukaryotic expression vector pCDNAIII containing either the human COX-1 or COX-2 cDNA's are used for the assay. These cell lines are referred to as CHO [hCOX-1] and CHO [hCOX-2], respectively. For cyclooxygenase assays, CHO[hCOX-1] cells from suspension cultures and CHO[hCOX-2] cells prepared by trypsinization of adherent cultures are harvested by centrifugation (300 x g, 10 min) and washed once in HBSS containing 15 mM HEPES, pH 7.4, and resuspended in HBSS, 15 mM HEPES, pH 7.4, at a cell concentration of 1.5 x 10^6 cells/ml. Drugs to be tested are dissolved in DMSO to 66.7-fold the highest test drug concentration. […] Cells (0.3 x 10^6 cells in 200 µl) are preincubated with 3 µl of the test drug or DMSO vehicle for 15 min at 37°C. Working solutions of peroxide-free AA (5.5 µM and 110 µM AA for the CHO [hCOX-1] and CHO [COX-2] assays, respectively) are prepared by a 10-fold dilution of a concentrated AA solution in ethanol into HBSS containing 15 mM HEPES, pH 7.4.
In the assay, inhibition is determined by measuring the amount of prostaglandin E2 (PGE2) synthesized in the presence of arachidonic acid, cyclooxygenase-1 or cyclooxygenase-2 and a putative inhibitor.

[2] = molecular target: T1, COX-2; test: Human whole blood assay, COX-2 (LPS-induced PGE2 production); format: cell-based; parameters: endogenous in cells; host or cells: fresh heparinized human whole blood from volunteers, stimulated with LPS; details: LPS 100 µg/ml, 24 hours at 37°C, read-out: COX-2 (IC50) HWB
Source text: As well, platelets in whole blood contain a large amount of the COX-1 enzyme. Immediately following blood clotting, platelets are activated through a thrombin-mediated mechanism. This reaction results in the production of thromboxane B2 (TxB2) via activation of COX-1. Thus, the effect of test compounds on TxB2 levels following blood clotting can be examined and used as an index for COX-1 activity. Therefore, the degree of selectivity by the test compound can be determined by measuring the levels of PGE2 after LPS induction (COX-2) and TxB2 following blood clotting (COX-1) in the same assay.
Fresh blood is collected in heparinized tubes by venipuncture from both male and female volunteers. The subjects have no apparent inflammatory conditions and have not taken any NSAIDs for at least 7 days prior to blood collection. Plasma is immediately obtained from a 2mL blood aliquot to use as blank (basal levels of PGE2). The remaining blood is incubated with LPS (100 µg/ml final concentration, Sigma Chem, #L-2630 from E. coli; diluted in 0.1% BSA (Phosphate buffered saline) for 5 minutes at room temperature. Five hundred µL aliquots of blood are incubated with either 2µL of vehicle (DMSO) or 2µL of a test compound at final concentrations varying from 10nM to 30µM for 24 hours at 37°C. At the end of the incubation, the blood is centrifuged at 12,000 x g for 5 minutes to obtain plasma. A 100µL aliquot of plasma is mixed with 400µL of methanol for protein precipitation. The supernatant is obtained and is assayed for PGE2 using a radioimmunoassay kit (Amersham, RPA#530) after conversion of PGE2 to its methyl oximate derivative according to the manufacturer's procedure.

[3] = tested on: Rat Paw Edema; test: Rat paw edema assay (carrageenan-induced); format: in vivo, Male Sprague-Dawley rats; details: po, 1 hr before subplantar carrageenan, paw volume measured three hr later
Experimental: Male Sprague-Dawley rats (150-200 g) are fasted overnight and are given, po, either vehicle (1% methocel or 5% Tween 80) or a test compound. One hr later, a line is drawn using a permanent marker at the level above the ankle in one hind paw to define the area of the paw to be monitored. The paw volume (V0) is measured using a plethysmometer (Ugo-Basile, Italy) based on the principle of water displacement. The animals are then injected subplantarly with […] of 1% carrageenan solution in saline (FMC Corp, Maine) into the paw using an insulin syringe with a 25-gauge needle (i.e. […] carrageenan per paw). Three hr later, the paw volume (V3) is measured and the increases in paw volume (V3 - VO) are calculated. The animals are sacrificed by CO2 asphyxiation and the absence or presence of stomach lesions scored. Data is compared with the vehicle-control values and percent inhibition calculated. All treatment groups are coded to eliminate observer bias.

SMILES | IC50 [1] [nM] | IC50 [2] [nM] | ED50 [3] [mg/kg]
C=CC(C)OC1=C(c2ccc(S(C)(=O)=O)cc2)C(C)(C)OC1=O (stereo not drawn) [Example 1, 5,5-Dimethyl-3-((1-methylallyl)oxy)-4-(4-methylsulfonylphenyl)-5H-furan-2-one] | 50 | 1900 | 
CC1(C)OC(=O)C(OC(C(F)(F)F)C(F)(F)F)=C1c1ccc(S(C)(=O)=O)cc1 [Example 2, 5,5-Dimethyl-3-(1,1,1,3,3,3-hexafluoropropoxy)-4-(4-methylsulfonyl-phenyl)-5H-furan-2-one] |  |  | 1
C#CC(C)OC1=C(c2ccc(S(C)(=O)=O)cc2)C(C)(C)OC1=O (stereo not drawn) [Example 3, 5,5-Dimethyl-3-((1-methyl-2-propynyl)oxy)-4-(4-methylsulfonylphenyl)-5H-furan-2-one] |  |  | 2.4
C=CC(C)(O)COC1=C(c2ccc(S(C)(=O)=O)cc2)C(C)(C)OC1=O (stereo not drawn) [Example 5, 3-((2-hydroxy-2-methyl-3-butenyl)oxy)-5,5-dimethyl-4-(4-methyl-sulfonyl)phenyl-5H-furan-2-one] | 80 | 600 | 
C=C(C)OC1=C(c2ccc(S(C)(=O)=O)cc2)C(C)(C)OC1=O [Example 7, 3-(Isopropenyloxy)-5,5-dimethyl-4-(4-methylsulfonylphenyl)-5H-furan-2-one] | 70 | 2100 | 
C[C@@H](CO)COC1=C(c2ccc(S(C)(=O)=O)cc2)C(C)(C)OC1=O [Example 8, 3-(((2S)-3-hydroxy-2-methylpropyl)oxy)-5,5-dimethyl-4(4-methyl-sulfonylphenyl)-5H-furan-2-one] | 500 | 500 | 3.1
C[C@H](CO)COC1=C(c2ccc(S(C)(=O)=O)cc2)C(C)(C)OC1=O [Example 9, 3-(((2R)-3-hydroxy-2-methylpropyl)oxy)-5,5-dimethyl-4-(4-methylsulfonylphenyl)-5H-furan-2-one] | 400 | < 400 | 
CC(CO)OC1=C(c2ccc(S(C)(=O)=O)cc2)C(C)(C)OC1=O (stereo not drawn) [Example 12, 3-(2-Hydroxy-1-methylethoxy)-5,5-dimethyl-4-(4-methylsulfonyl-phenyl)-5H-furan-2-one] | 500 | 4700 | 
C#CCOC1=C(c2ccc(S(C)(=O)=O)cc2)C(C)(C)OC1=O [Example 14, 5,5-Dimethyl-4-(4-methylsulfonylphenyl)3-(2-propynyloxy)-5H-furan-2-one] | 500 | 5100 | 
C=CCOC1=C(c2ccc(S(C)(=O)=O)cc2)C(C)(C)OC1=O [Example 15, 3-(Allyloxy)-5,5-dimethyl-4-(4-methylsulfonylphenyl)-5H-furan-2-one] | 200 | 1800 | 
CC1(C)OC(=O)C(OC2CCC3(CC2)OCCO3)=C1c1ccc(S(C)(=O)=O)cc1 [Example 16, 3-(1,4-dioxaspiro[4.5]dec-8-yloxy)-5,5-dimethyl-4-(4-methylsulfonyl-phenyl)-5H-furan-2-one] | 400 |  | 
CC1(C)OC(=O)C(OC2CCC(F)(F)CC2)=C1c1ccc(S(C)(=O)=O)cc1 [Example 17] | 300 | 600 | 0.9
C=C(C)COC1=C(c2ccc(S(C)(=O)=O)cc2)C(C)(C)OC1=O [Example 18, 5,5-dimethyl-3-(2-methylallyloxy)-4-(4-methylsulfonylphenyl)-5H-furan-2-one] |  | < 400 | 
CC1(COC2=C(c3ccc(S(C)(=O)=O)cc3)C(C)(C)OC2=O)CC1 [Example 19, 5,5-Dimethyl-3-[(1-methylcyclopropyl)methoxy]-4-(4-methylsulfonyl-phenyl)-5H-furan-2-one] |  | < 400 | 
C=C(CF)COC1=C(c2ccc(S(C)(=O)=O)cc2)C(C)(C)OC1=O [Example 20, 3-{[2-(fluoromethyl)allyl]oxy}-5,5-dimethyl-4-(4-methylsulfonyl-phenyl)-5H-furan-2-one] | 200 | 600 | 
CC1(C)OC(=O)C(OCC2(CO)CC2)=C1c1ccc(S(C)(=O)=O)cc1 [Example 21, 3-{[1-(hydroxymethyl)cyclopropyl]methoxy}-5,5-dimethyl-4-(4-methylsulfonylphenyl)-2-5H-furan-2-one] | 600 | 900 | 
CC1(C)OC(=O)C(OCC2(CF)CC2)=C1c1ccc(S(C)(=O)=O)cc1 [Example 23, 3-{[1-(fluoromethyl)cyclopropyl]methoxy}-5,5-dimethyl-4-(4-methylsulfonylphenyl)-5H-furan-2-one] |  |  | 5.9
CC1(C)OC(=O)C(OC2CCCC2=O)=C1c1ccc(S(C)(=O)=O)cc1 (stereo not drawn) [Example 24, 3-((2-oxocyclopentyl)oxy)-5,5-dimethyl-4-(4-methylsulfonylphenyl)-5H-furan-2-one] | 400 | 800 | 
CC1(C)OC(=O)C(OC2CCCC2(F)F)=C1c1ccc(S(C)(=O)=O)cc1 (stereo not drawn) [Example 25] |  | < 400 | 
